# In ChEMBL document CHEMBL1143306, “3-amido-4-anilinoquinolines as CSF-1R kinase inhibitors 2: Optimization of the PK profile” (Bioorg Med Chem Lett, 2009):
# Test system: NIH3T3
# Test: Antiproliferative activity against mouse 3T3 cells expressing human CSF1R after 72 hrs by Celltiter assay
# Type: functional
# Conditions: not given
row,Structure (SMILES),Activity
1,CCOc1cc2ncc(C(N)=O)c(Nc3cccc(Cl)c3Cl)c2cc1N1CCN(CC)CC1,0.02 µM
2,CCOc1cc2ncc(C(N)=O)c(Nc3cccc(Cl)c3Cl)c2cc1N1CCCN(C)CC1,0.05 µM
3,CCOc1cc2ncc(C(N)=O)c(Nc3cc(F)ccc3F)c2cc1N1CCN(C)CC1,0.11 µM
4,CCOc1cc2ncc(C(N)=O)c(Nc3ccc(Cl)c(Cl)c3)c2cc1N1CCN(C)CC1,0.06 µM
5,CCOc1cc2ncc(C(N)=O)c(Nc3ccc(F)c(Cl)c3)c2cc1N1CCN(C)CC1,0.13 µM
6,CCOc1cc2ncc(C(N)=O)c(Nc3cc(C)ccc3F)c2cc1N1CCN(C)CC1,0.09 µM

# Test system: not listed separately
# Test: Aqueous solubility of the compound
# Type: physicochemical
# Conditions: buffer
row,solubility,Structure (SMILES)
1,71 µM,CCOc1cc2ncc(C(N)=O)c(Nc3cc(F)ccc3F)c2cc1N1CCN(C)CC1
2,66 µM,CCOc1cc2ncc(C(N)=O)c(Nc3cc(C)ccc3F)c2cc1N1CCN(C)CC1

# Continued, compound first:
row,Structure (SMILES),solubility
1,CCOc1cc2ncc(C(N)=O)c(Nc3cccc(Cl)c3Cl)c2cc1N1CCN(CC)CC1,11 µM
2,CCOc1cc2ncc(C(N)=O)c(Nc3cccc(Cl)c3Cl)c2cc1N1CCCN(C)CC1,130 µM
3,CCOc1cc2ncc(C(N)=O)c(Nc3ccc(Cl)c(Cl)c3)c2cc1N1CCN(C)CC1,3 µM

# Test system: not listed separately
# Test: Plasma protein binding assessed as percentage unbound
# Conditions: not given
row,fraction unbound,Structure (SMILES)
1,0.073,CCOc1cc2ncc(C(N)=O)c(Nc3cc(F)ccc3F)c2cc1N1CCN(C)CC1
2,0.034,CCOc1cc2ncc(C(N)=O)c(Nc3ccc(F)c(Cl)c3)c2cc1N1CCN(C)CC1

# Continued, compound first:
row,Structure (SMILES),fraction unbound
1,CCOc1cc2ncc(C(N)=O)c(Nc3cccc(Cl)c3Cl)c2cc1N1CCN(CC)CC1,0.019
2,CCOc1cc2ncc(C(N)=O)c(Nc3cccc(Cl)c3Cl)c2cc1N1CCCN(C)CC1,0.019

# Test system: not listed separately
# Test: Bioavailability in rat at 3 mg/kg, iv and 10 mg/kg, po
# Type: ADME, organism-based
# Conditions: in vivo
row,bioavailability,Structure (SMILES)
1,33%,CCOc1cc2ncc(C(N)=O)c(Nc3cc(F)ccc3F)c2cc1N1CCN(C)CC1
2,55%,CCOc1cc2ncc(C(N)=O)c(Nc3ccc(F)c(Cl)c3)c2cc1N1CCN(C)CC1
3,88%,CCOc1cc2ncc(C(N)=O)c(Nc3cc(C)ccc3F)c2cc1N1CCN(C)CC1

# The remaining lines, values behind:
row,Structure (SMILES),bioavailability
1,CCOc1cc2ncc(C(N)=O)c(Nc3cccc(Cl)c3Cl)c2cc1N1CCN(CC)CC1,19%
2,CCOc1cc2ncc(C(N)=O)c(Nc3cccc(Cl)c3Cl)c2cc1N1CCCN(C)CC1,100%
3,CCOc1cc2ncc(C(N)=O)c(Nc3ccc(Cl)c(Cl)c3)c2cc1N1CCN(C)CC1,42%

# Test system: not listed separately
# Test: Clearance in rat at 3 mg/kg, iv and 10 mg/kg, po
# Type: ADME, organism-based
# Conditions: in vivo
row,clearance,Structure (SMILES)
1,28 mL/min/kg,CCOc1cc2ncc(C(N)=O)c(Nc3cc(F)ccc3F)c2cc1N1CCN(C)CC1
2,53 mL/min/kg,CCOc1cc2ncc(C(N)=O)c(Nc3ccc(F)c(Cl)c3)c2cc1N1CCN(C)CC1
3,28 mL/min/kg,CCOc1cc2ncc(C(N)=O)c(Nc3cc(C)ccc3F)c2cc1N1CCN(C)CC1

# More lines, now with the values behind:
row,Structure (SMILES),clearance
1,CCOc1cc2ncc(C(N)=O)c(Nc3cccc(Cl)c3Cl)c2cc1N1CCN(CC)CC1,86 mL/min/kg
2,CCOc1cc2ncc(C(N)=O)c(Nc3cccc(Cl)c3Cl)c2cc1N1CCCN(C)CC1,63 mL/min/kg
3,CCOc1cc2ncc(C(N)=O)c(Nc3ccc(Cl)c(Cl)c3)c2cc1N1CCN(C)CC1,47 mL/min/kg

# Test system: not listed separately
# Test: Volume of distribution at steady state in rat at 3 mg/kg, iv and 10 mg/kg, po
# Type: ADME, organism-based
# Conditions: in vivo, read-out: Vdss
row,Vd,Structure (SMILES)
1,2.9 L/kg,CCOc1cc2ncc(C(N)=O)c(Nc3cc(F)ccc3F)c2cc1N1CCN(C)CC1
2,9.3 L/kg,CCOc1cc2ncc(C(N)=O)c(Nc3ccc(F)c(Cl)c3)c2cc1N1CCN(C)CC1
3,5.3 L/kg,CCOc1cc2ncc(C(N)=O)c(Nc3cc(C)ccc3F)c2cc1N1CCN(C)CC1

# The remaining lines, values behind:
row,Structure (SMILES),Vd
1,CCOc1cc2ncc(C(N)=O)c(Nc3cccc(Cl)c3Cl)c2cc1N1CCN(CC)CC1,6.8 L/kg
2,CCOc1cc2ncc(C(N)=O)c(Nc3cccc(Cl)c3Cl)c2cc1N1CCCN(C)CC1,40 L/kg
3,CCOc1cc2ncc(C(N)=O)c(Nc3ccc(Cl)c(Cl)c3)c2cc1N1CCN(C)CC1,3.7 L/kg

# Test system: not listed separately
# Test: Half life in rat at 3 mg/kg, iv and 10 mg/kg, po
# Type: ADME, organism-based
# Conditions: in vivo
row,half-life,Structure (SMILES)
1,1.3 h,CCOc1cc2ncc(C(N)=O)c(Nc3cc(F)ccc3F)c2cc1N1CCN(C)CC1
2,2.2 h,CCOc1cc2ncc(C(N)=O)c(Nc3ccc(F)c(Cl)c3)c2cc1N1CCN(C)CC1
3,2.3 h,CCOc1cc2ncc(C(N)=O)c(Nc3cc(C)ccc3F)c2cc1N1CCN(C)CC1

# Further lines, the compound ahead of its results:
row,Structure (SMILES),half-life
1,CCOc1cc2ncc(C(N)=O)c(Nc3cccc(Cl)c3Cl)c2cc1N1CCN(CC)CC1,1.2 h
2,CCOc1cc2ncc(C(N)=O)c(Nc3cccc(Cl)c3Cl)c2cc1N1CCCN(C)CC1,8.6 h
3,CCOc1cc2ncc(C(N)=O)c(Nc3ccc(Cl)c(Cl)c3)c2cc1N1CCN(C)CC1,1.2 h

# Test system: Mus musculus
# Test: Inhibition of phosphorylated CSF1R level in 3T3/CSF1R mutant cells xenografted nude mouse at 25 mg/kg, po after 2 hrs by ELISA
# Type: functional
# Conditions: not given
row,Structure (SMILES),inhibition in vivo at 25 mg/kg
1,CCOc1cc2ncc(C(N)=O)c(Nc3cccc(Cl)c3Cl)c2cc1N1CCN(CC)CC1,95%
2,CCOc1cc2ncc(C(N)=O)c(Nc3cccc(Cl)c3Cl)c2cc1N1CCCN(C)CC1,90%
3,CCOc1cc2ncc(C(N)=O)c(Nc3cc(F)ccc3F)c2cc1N1CCN(C)CC1,75%
4,CCOc1cc2ncc(C(N)=O)c(Nc3ccc(Cl)c(Cl)c3)c2cc1N1CCN(C)CC1,80%
5,CCOc1cc2ncc(C(N)=O)c(Nc3ccc(F)c(Cl)c3)c2cc1N1CCN(C)CC1,70%
6,CCOc1cc2ncc(C(N)=O)c(Nc3cc(C)ccc3F)c2cc1N1CCN(C)CC1,90%

# Test system: Mus musculus
# Test: Inhibition of phosphorylated CSF1R level in 3T3/CSF1R mutant cells xenografted nude mouse at 25 mg/kg, po after 6 hrs by ELISA
# Type: functional
# Conditions: not given
row,Structure (SMILES),inhibition in vivo at 25 mg/kg
1,CCOc1cc2ncc(C(N)=O)c(Nc3cccc(Cl)c3Cl)c2cc1N1CCN(CC)CC1,75%
2,CCOc1cc2ncc(C(N)=O)c(Nc3cccc(Cl)c3Cl)c2cc1N1CCCN(C)CC1,95%
3,CCOc1cc2ncc(C(N)=O)c(Nc3cc(F)ccc3F)c2cc1N1CCN(C)CC1,45%
4,CCOc1cc2ncc(C(N)=O)c(Nc3ccc(Cl)c(Cl)c3)c2cc1N1CCN(C)CC1,40%
5,CCOc1cc2ncc(C(N)=O)c(Nc3ccc(F)c(Cl)c3)c2cc1N1CCN(C)CC1,55%
6,CCOc1cc2ncc(C(N)=O)c(Nc3cc(C)ccc3F)c2cc1N1CCN(C)CC1,80%
